Reference: patent EP0551518A1, “QUINOLINECARBOXYLIC ACID DERIVATIVE” (NIPPON SHINYAKU COMPANY, LIMITED, priority 1990, dated 1992)
Converted amounts (≈) assume the structure as drawn. Counter-ions that a name gives are not always drawn.

Legend:
Format in all cases: cell-based
[1] = system: Bacillus subtilis ATCC 6633; assay: Determination of minimal inhibitory concentration of growth (MIC)-1, agar plate dilution method; conditions: Bacillus subtilis ATCC 6633; agar plate dilution, 10⁶ CFU/ml, 37°C, 18 hours
Experimental: (§1) Method: MIC was determined by the agar plate dilution method in accordance with the standard protocol of Japan Society of Chemotherapy (cf. Chemotherapy 29 (1), 76-79, 1981). Each bacterial culture obtained by 18-hour incubation in a sensitivity assay bouillon medium at 37°C was diluted to 10⁶ CFU/ml with the same medium. Using a microplanter, a sensitivity assay agar medium containing the test drug was inoculated with the diluted culture and incubated at 37°C for 18 hours. The MIC value was then determined. As reference drugs, 6-fluoro-1-methyl-4-oxo-7-(1-piperazinyl)-4H-[1,3]thiazeto[3,2-a]quinoline-3-carboxylic acid (referred to as control), ciprofloxacin (CPFX) and ofloxacin (OFLX) were used.

[2] = system: Micrococcus luteus ATCC 9341; assay: as above; conditions: Micrococcus luteus ATCC 9341; agar plate dilution, 10⁶ CFU/ml, 37°C, 18 hours
Experimental: as §1

[3] = system: Proteus vulgaris HX-19; assay: as above; conditions: Proteus vulgaris HX-19; agar plate dilution, 10⁶ CFU/ml, 37°C, 18 hours
Experimental: as §1

[4] = system: Pseudomonas aeruginosa IFO 3445; assay: as above; conditions: Pseudomonas aeruginosa IFO 3445; agar plate dilution, 10⁶ CFU/ml, 37°C, 18 hours
Experimental: as §1

[5] = system: Staphylococcus epider-midis IFO 12993; assay: as above; conditions: Staphylococcus epider-midis IFO 12993; agar plate dilution, 10⁶ CFU/ml, 37°C, 18 hours
Experimental: as §1

[6] = system: Enterococcus faecalis ATCC 29212; assay: as above; conditions: Enterococcus faecalis ATCC 29212; agar plate dilution, 10⁶ CFU/ml, 37°C, 18 hours
Experimental: as §1

[7] = system: Staphylococcus aureus OWPH 2125 (MRSA, PCA^r ); assay: as above; conditions: Staphylococcus aureus OWPH 2125 (MRSA, PCA^r); agar plate dilution, 10⁶ CFU/ml, 37°C, 18 hours
Experimental: as §1

[8] = system: Staphylococcus aureus OWPH 1984 (MRSA); assay: as above; conditions: Staphylococcus aureus OWPH 1984 (MRSA); agar plate dilution, 10⁶ CFU/ml, 37°C, 18 hours
Experimental: as §1

[9] = system: Staphylococcus aureus Smith; assay: as above; conditions: Staphylococcus aureus Smith; agar plate dilution, 10⁶ CFU/ml, 37°C, 18 hours
Experimental: as §1

[10] = system: Staphylococcus aureus 209-P JC-1; assay: as above; conditions: Staphylococcus aureus 209-P JC-1; agar plate dilution, 10⁶ CFU/ml, 37°C, 18 hours
Experimental: as §1

[11] = system: Escherichia coli KC-14; assay: as above; conditions: 10⁶ CFU/ml, 37°C, 18 hours
Experimental: as §1

[12] = system: S. aureus OWPH 1773; assay: Determination of minimal inhibitory concentration (MIC)-2, new quinolone-resistant MRSA; conditions: Staphylococcus aureus, OWPH1773, 18 h; S. aureus OWPH 1773, new quinolone-resistant and methicillin-resistant; same procedure as Test Example 1
Experimental: as §1
(§2) The antibacterial activity of the compounds obtained in Example 4, Example 25 and Example 26 of the present invention was assayed by the same procedure as in Test Example 1. As reference drugs, 6-fluoro-1-methyl-4-oxo-7-(1-piperazinyl)-4H-[1,3]-thiazeto[3,2-a]quinoline-3-carboxylic acid (referred to as Control), norfloxacin (NFLX) and tosufloxacin (TFLX) were used.

[13] = system: S. aureus Sh 54; assay: as above; conditions: Staphylococcus aureus, SH54, 18 h; S. aureus Sh 54, new quinolone-resistant and methicillin-resistant; same procedure as Test Example 1
Experimental: as §1, §2

[14] = system: S. aureus Sh 2; assay: as above; conditions: Staphylococcus aureus, SH2, 18 h; S. aureus Sh 2, new quinolone-resistant and methicillin-resistant; same procedure as Test Example 1
Experimental: as §1, §2

[15] = system: S. aureus OWPH 1799; assay: as above; conditions: Staphylococcus aureus, OWPH1799, 18 h; S. aureus OWPH 1799, new quinolone-resistant and methicillin-resistant; same procedure as Test Example 1
Experimental: as §1, §2

[16] = system: S. aureus OWPH 1770; assay: as above; conditions: Staphylococcus aureus, OWPH1770, 18 h; S. aureus OWPH 1770, new quinolone-resistant and methicillin-resistant; same procedure as Test Example 1
Experimental: as §1, §2

[17] = system: S. aureus OWPH 2134; assay: as above; conditions: Staphylococcus aureus, OWPH2134, 18 h; S. aureus OWPH 2134, new quinolone-resistant and methicillin-resistant; same procedure as Test Example 1
Experimental: as §1, §2

[18] = system: S. aureus OWPH 2127; assay: as above; conditions: Staphylococcus aureus, OWPH2127, 18 h; S. aureus OWPH 2127, new quinolone-resistant and methicillin-resistant; same procedure as Test Example 1
Experimental: as §1, §2

[19] = system: S. aureus OWPH 1796; assay: as above; conditions: Staphylococcus aureus, OWPH1796, 18 h; S. aureus OWPH 1796, new quinolone-resistant and methicillin-resistant; same procedure as Test Example 1
Experimental: as §1, §2

[20] = system: S. aureus OWPH 1793; assay: as above; conditions: Staphylococcus aureus, OWPH1793, 18 h; S. aureus OWPH 1793, new quinolone-resistant and methicillin-resistant; same procedure as Test Example 1
Experimental: as §1, §2

[21] = system: S. aureus Sh 8; assay: as above; conditions: Staphylococcus aureus, SH8, 18 h; S. aureus Sh 8, new quinolone-resistant and methicillin-resistant; same procedure as Test Example 1
Experimental: as §1, §2

[22] = system: S. aureus Sh 47; assay: as above; conditions: Staphylococcus aureus, SH47, 18 h; S. aureus Sh 47, new quinolone-resistant and methicillin-resistant; same procedure as Test Example 1
Experimental: as §1, §2

[23] = system: S. aureus OWPH 2124; assay: as above; conditions: Staphylococcus aureus, OWPH2124, 18 h; S. aureus OWPH 2124, new quinolone-resistant and methicillin-resistant; same procedure as Test Example 1
Experimental: as §1, §2

[24] = system: S. aureus OWPH 2128; assay: as above; conditions: Staphylococcus aureus, OWPH2128, 18 h; S. aureus OWPH 2128, new quinolone-resistant and methicillin-resistant; same procedure as Test Example 1
Experimental: as §1, §2

[25] = system: S. aureus Sh 44; assay: as above; conditions: Staphylococcus aureus, SH44, 18 h; S. aureus Sh 44, new quinolone-resistant and methicillin-resistant; same procedure as Test Example 1
Experimental: as §1, §2

[26] = system: S. aureus OWPH 1792; assay: as above; conditions: Staphylococcus aureus, OWPH1792, 18 h; S. aureus OWPH 1792, new quinolone-resistant and methicillin-resistant; same procedure as Test Example 1
Experimental: as §1, §2

[27] = system: S. aureus OWPH 2133; assay: as above; conditions: Staphylococcus aureus, OWPH2133, 18 h; S. aureus OWPH 2133, new quinolone-resistant and methicillin-resistant; same procedure as Test Example 1
Experimental: as §1, §2

[28] = system: S. aureus OWPH 1786; assay: as above; conditions: Staphylococcus aureus, OWPH1786, 18 h; S. aureus OWPH 1786, new quinolone-resistant and methicillin-resistant; same procedure as Test Example 1
Experimental: as §1, §2

MIC [12] | MIC [13] | MIC [14] | MIC [15] | MIC [16] | MIC [17] | MIC [18] | MIC [19] | MIC [20] | MIC [21] | MIC [22] | MIC [23] | MIC [24] | MIC [25] | MIC [26] | MIC [27] | MIC [28] | SMILES | other results
– | – | – | – | – | – | – | – | – | – | – | – | – | – | – | – | – | CC1Sc2c(C(=O)O)c(=O)c3cc(F)c(-c4ccc(N)cc4)cc3n21 (stereo not drawn) [Example 56, 7-(4-Aminophenyl)-6-fluoro-1-methyl-4-oxo-4H-[1,3]thiazeto[3,2-a]quinoline-3-carboxylic acid 1/2 sulfate] | MIC [1]: ≤ 0.006 μ g/ml; MIC [2]: 0.20 μ g/ml; MIC [3]: ≤ 0.006 μ g/ml; MIC [4]: 0.20 μ g/ml; MIC [5]: 0.012 μ g/ml; MIC [6]: 0.05 μ g/ml; MIC [7]: 0.05 μ g/ml; MIC [8]: 0.012 μ g/ml; MIC [9]: ≤ 0.006 μ g/ml; MIC [10]: 0.025 μ g/ml; MIC [11]: 0.05 μ g/ml
> 100 µg/mL | > 100 µg/mL | > 100 µg/mL | > 100 µg/mL | > 100 µg/mL | > 100 µg/mL | > 100 µg/mL | > 100 µg/mL | > 100 µg/mL | > 100 µg/mL | > 100 µg/mL | > 100 µg/mL | > 100 µg/mL | > 100 µg/mL | > 100 µg/mL | > 100 µg/mL | > 100 µg/mL | CCn1cc(C(=O)O)c(=O)c2cc(F)c(N3CCNCC3)cc21 [NFLX, norfloxacin, reference compound] | –
> 100 µg/mL | > 100 µg/mL | > 100 µg/mL | > 100 µg/mL | > 100 µg/mL | > 100 µg/mL | > 100 µg/mL | > 100 µg/mL | > 100 µg/mL | > 100 µg/mL | > 100 µg/mL | 12.5 µg/mL (≈ 30.9 µM) | > 100 µg/mL | > 100 µg/mL | > 100 µg/mL | > 100 µg/mL | > 100 µg/mL | NC1CCN(c2nc3c(cc2F)c(=O)c(C(=O)O)cn3-c2ccc(F)cc2F)C1 (stereo not drawn) [TFLX, tosufloxacin, reference compound] | –
